Drawing on PubChem BioAssay (NCI), this text covers TGI for 11 molecules.

What all share (assay): NCI tumour cell line growth inhibition, 48 h
For test [1], the system named is A549 NSCLC.
The subject of test [2] is U251 CNS.
Test [3] deals with MOLT-4 leukemia.
Test [4] deals with SK-OV-3 ovarian.
Test [5] has as its system KM12 colon.
Test [6] deals with NCI-H23 lung.
Test [7] concerns SW-620 colon.
Test [8] concerns SK-MEL-5 melanoma.
Test [9] relates to CCRF-CEM leukemia.
The subject of test [10] is OVCAR-8 ovarian.
The subject of test [11] is NCI-H522 lung.
Test [12] concerns SNB-19 CNS.
For test [13], the system named is SF-268 CNS.

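Exposure lasted 48 hours, with cells grown in 96-well plates and compounds tested at five concentrations. The concentration for full growth arrest is given as TGI.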

For `Cc1ccc2c(c1CCCC(C)(C)O)C(=O)C(=O)C(C(C)C)=C2O`, the TGI in [1], in [2], in test [3], in test [4], in test [5] and in test [6] was above 100 µM in each case. For the same molecule, the TGI in [7], in [8], in [9], in test [10], in test [11] and in [12] was above 100 µM each time. In addition, in test [13], the TGI is above 100 µM.
Regarding `COc1cc2c(cc1OCc1ccccc1)CNCC2`, the TGI in test [1], in test [2], in [3], in [4], in test [5] and in test [6] was above 100 µM each time. Moreover, the TGI in [7], in [8], in [9], in test [10], in test [11] and in [12] was above 100 µM throughout. The same molecule showed a TGI in test [13] above 100 µM.
For the molecule `CC(C)CC1[C@@H](OCc2ccccc2)COS(=O)N1Cc1ccccc1` (stereo not given in full), the TGI in test [1] is above 100 µM; in test [2], above 100 µM; in test [3] it was above 100 µM; in test [4], above 100 µM; in test [5], 96.2 µM; in test [6], above 100 µM. In addition, the TGI in test [7], in [8], in test [9], in test [10], in [12] and in test [13] was above 100 µM each time.
For `COC(CN(C(=O)c1ccccc1)C1CCC2(SCCS2)c2[nH]c3ccccc3c21)OC` (stereo not given), the TGI in test [1], in [2], in [3], in test [5], in [6] and in test [7] was above 100 µM in each case. Also, the TGI in test [8] was above 100 µM; in [9], above 100 µM; in test [10] it was above 100 µM; in test [11], 65.4 µM; in test [12], above 100 µM; in test [13], above 100 µM.
For `Cc1cn(C2CC(N(O)Cc3ccccc3)C(CO)O2)c(=O)[nH]c1=O` (stereo not given), the TGI in [1], in test [2], in [3], in test [4], in test [5] and in test [6] was above 100 µM in each case. For the same molecule, the TGI in test [7], in test [8], in test [9], in [10], in [12] and in test [13] was above 100 µM throughout.
With `N#C/C(=C\c1ccc(O)c(O)c1)C(N)=O`, the TGI was above 100 µM in test [1]; above 100 µM in test [2]; 38.6 µM in [3]; above 100 µM in test [4]; above 100 µM in test [5]; 93.8 µM in [6]. The TGI in [7] was above 100 µM; in test [9], 37.7 µM; in test [10], above 100 µM; in [11] it was 53.3 µM; in test [12], above 100 µM; in [13], above 100 µM.
As to `Cc1ccc(C2CC(c3ccco3)=NN2c2ccccc2)o1` (stereo not given), the TGI in test [1], in test [2], in test [3], in test [5], in test [6] and in [7] was above 100 µM each time. In addition, the TGI in test [8], in [9], in test [10], in [11], in test [12] and in [13] was above 100 µM each time.
For `CCCCCC(C[N+]1(C)CCOCC1)C(=O)/C=C/c1ccccc1` (stereo not given), the TGI was 62 µM in test [1]; 21.2 µM in test [2]; 27.4 µM in test [3]; above 88.6 µM in [4]; 8.71 µM in test [5]; 32 µM in test [6]. Moreover, the TGI is 7.51 µM in test [7]; 28.1 µM in [8]; above 35.3 µM in [9]; 39.3 µM in test [10]; 9.39 µM in test [11]; 24.5 µM in test [12].
For `COc1c(C)c2c(c(C)c1Cl)Oc1c(C=O)c(O)c(Cl)c(C)c1C(=O)O2`, the TGI in test [1] is above 100 µM; in [2], 44.9 µM; in test [3] it was 65.2 µM; in test [4] it was above 100 µM; in [5], above 100 µM; in [6] it was 45.2 µM. Further, the TGI is above 100 µM in [7]; above 100 µM in [8]; 72.5 µM in [9]; above 100 µM in test [10]; 96.4 µM in [11]; above 100 µM in test [13].
On to `Cc1cn(C2CC(ON3C(=O)c4ccccc4C3=O)C(CO)O2)c(=O)[nH]c1=O` (stereo not given), for which the TGI in test [1], in test [2], in test [3], in test [4], in [5] and in test [6] was above 10 µM each time. The TGI in [7], in test [9], in test [10], in [11], in test [12] and in [13] was above 10 µM in each case.
On to `CNC(=S)N/N=C(C)\C(=N/NC(=S)NC)c1ccccc1`, for which the TGI in [1], in test [4], in test [5], in test [6], in test [8] and in test [11] was above 100 µM throughout. The TGI in test [12] and in test [13] was above 100 µM throughout.
